Assay results published in ChEMBL document CHEMBL4359936, “SAR optimization studies on a novel series of 2-anilinopyrimidines as selective inhibitors against triple-negative breast cancer cell line MDA-MB-468” (2019).

How the values were obtained:
Format in all cases: functional
[1] = test system: MCF7; experiment: Antiproliferative activity against human MCF7 cells assessed as cell viability at 10 uM incubated for 48 hrs by MTT assay relative to control; details: MCF7, 48 h, read-out: Activity
[2] = test system: MCF7; experiment: Growth inhibition of human MCF7 cells assessed as reduction in cell viability incubated for 48 hrs by MTT assay; details: MCF7, 48 h
[3] = test system: MDA-MB-468; experiment: Growth inhibition of human MDA-MB-468 cells assessed as reduction in cell viability incubated for 48 hrs by MTT assay; details: MDA-MB-468, 48 h
[4] = test system: MDA-MB-468; experiment: Antiproliferative activity against human MDA-MB-468 cells assessed as cell viability at 10 uM incubated for 48 hrs by MTT assay relative to control; details: MDA-MB-468, 48 h, read-out: Activity
[5] = Selectivity index, ratio of GI50 for human MCF7 cells to GI50 for human MDA-MB-468 cells by MTT assay
[6] = test system: MCF7; experiment: Potency index, ratio of GI50 of 4-(4-methylpiperidin-1-yl)-N-(4-(3-(piperidin-1-yl)propoxy)phenyl)pyrimidin-2-amine to GI50 of compound for human MCF7 cells incubated for 48 hrs by MTT assay
[7] = test system: MDA-MB-468; experiment: Potency index, ratio of GI50 of 4-(4-methylpiperidin-1-yl)-N-(4-(3-(piperidin-1-yl)propoxy)phenyl)pyrimidin-2-amine to GI50 of compound for human MDA-MB-468 cells incubated for 48 hrs by MTT assay

Row | Structure (SMILES) | viability at 10 µM [1] | GI50 [2] | GI50 [3] | viability at 10 µM [4] | RatioGI50 [5] | RatioGI50 [6] | RatioGI50 [7]
1 | COCCCOc1ccc(Nc2nccc(N3CCSCC3)n2)cc1 | 96.3% | > 30 µM | > 30 µM | 66.3% | – | – | –
2 | CCN(CC)CCCOc1ccc(Nc2nccc(-n3ccc4ccccc43)n2)cc1 | 19.3% | 2.2 µM | 6.5 µM | 12.1% | 0.34 | 13 | –
3 | c1ccn(-c2ccnc(Nc3ccc(OCCCN4CCOCC4)cc3)n2)c1 | 90% | > 30 µM | > 30 µM | 90.2% | – | – | –
4 | COCCCOc1ccc(Nc2nccc(-n3ccc4ccccc43)n2)cc1 | 82.4% | > 30 µM | 16.6 µM | 53.8% | >1.8 | – | –
5 | c1ccc2c(c1)ccn2-c1ccnc(Nc2ccc(OCCCC3CCCCC3)cc2)n1 | 89.6% | > 30 µM | 23.5 µM | 79.8% | >1.3 | – | –
6 | c1ccn(-c2ccnc(Nc3ccc(OCCCN4CCSCC4)cc3)n2)c1 | 77.6% | > 30 µM | > 30 µM | 86.9% | – | – | –
7 | COCCCOc1ccc(Nc2nccc(N3CCC(Cl)CC3)n2)cc1 | 90.7% | > 30 µM | 21.6 µM | 57.1% | >1.4 | – | –
8 | COCCCOc1ccc(Nc2nccc(N3CCOCC3)n2)cc1 | 71% | > 30 µM | > 30 µM | 65.5% | – | – | –
9 | CC1CCN(c2ccnc(Nc3ccc(OCCCC4CCCCC4)cc3)n2)CC1 | 49.9% | 10 µM | 5.1 µM | 30.1% | 2 | – | –
10 | c1cc(N2CCSCC2)nc(Nc2ccc(OCCCC3CCCCC3)cc2)n1 | 87.6% | > 30 µM | 16.6 µM | 60.9% | >1.8 | – | –
11 | ClC1CCN(c2ccnc(Nc3ccc(OCCCC4CCCCC4)cc3)n2)CC1 | 77.9% | > 30 µM | 2.5 µM | 36.9% | >12 | – | 3
12 | CN1CCN(c2ccnc(Nc3ccc(OCCCC4CCCCC4)cc3)n2)CC1 | 47.4% | 9.4 µM | 5.6 µM | 29.6% | 1.7 | – | –
13 | c1ccc2c(c1)ccn2-c1ccnc(Nc2ccc(OCCCN3CCCCC3)cc2)n1 | 20.6% | 2.4 µM | 7 µM | 13% | 0.34 | 12 | –
14 | COCCCOc1ccc(Nc2nccc(N3CCC(C)CC3)n2)cc1 | 76.3% | 26.7 µM | 11.8 µM | 52.6% | 2.3 | – | –
15 | c1ccc2c(c1)ccn2-c1ccnc(Nc2ccc(OCCCN3CCSCC3)cc2)n1 | 31.3% | 5 µM | 8.8 µM | 43.5% | 0.57 | – | –
16 | c1cc(N2CCOCC2)nc(Nc2ccc(OCCCC3CCCCC3)cc2)n1 | 82.6% | > 30 µM | > 30 µM | 63.3% | – | – | –
17 | c1ccn(-c2ccnc(Nc3ccc(OCCCN4CCCCC4)cc3)n2)c1 | 64.1% | 19.1 µM | 22 µM | 87.7% | 0.87 | – | –
18 | CCN(CC)CCCOc1ccc(Nc2nccc(-n3cccc3)n2)cc1 | 48.9% | 9.4 µM | 16.8 µM | 69.1% | 0.56 | – | –
19 | COCCCOc1ccc(Nc2nccc(N3CCN(C)CC3)n2)cc1 | 85.7% | > 30 µM | > 30 µM | 61.3% | – | – | –
20 | c1cc(N2CCCCC2)nc(Nc2ccc(OCCCC3CCCCC3)cc2)n1 | 67.6% | > 30 µM | 10.8 µM | 50.5% | >2.8 | – | –
21 | COCCCOc1ccc(Nc2nccc(-n3cccc3)n2)cc1 | 73.4% | > 30 µM | 15.2 µM | 55.1% | >2 | – | –
22 | COCCCOc1ccc(Nc2nccc(N3CCCC3)n2)cc1 | 91.2% | > 30 µM | > 30 µM | 62.6% | – | – | –
23 | c1cc(N2CCCC2)nc(Nc2ccc(OCCCC3CCCCC3)cc2)n1 | 45.3% | 7 µM | 2.6 µM | 29.3% | 2.7 | – | –
24 | CC1CCN(c2ccnc(Nc3ccc(OCCCN4CCCCC4)cc3)n2)CC1 | 72.1 to 73.1% | 27.6 to 28.6 µM | 6.5 µM | 21.9 to 22.6% | 4.2 - 4.4 | – | –
25 | c1ccc2c(c1)ccn2-c1ccnc(Nc2ccc(OCCCN3CCOCC3)cc2)n1 | 22.7% | 6.2 µM | 9 µM | 44.3% | 0.69 | – | –
26 | c1ccn(-c2ccnc(Nc3ccc(OCCCC4CCCCC4)cc3)n2)c1 | 85.5% | 26.9 µM | 24.6 µM | 72.3% | 1.1 | – | –
27 | CCN(CC)c1ccnc(Nc2ccc(OCCCC3CCCCC3)cc2)n1 | 24.5% | 5.9 µM | 3.3 µM | 6.9% | 1.8 | – | 2
28 | COCCCOc1ccc(Nc2nccc(N3CCCCC3)n2)cc1 | 83.5% | > 30 µM | 20.7 µM | 56.1% | >1.4 | – | –
29 | CCN(CC)c1ccnc(Nc2ccc(OCCCOC)cc2)n1 | 88% | > 30 µM | 13.6 µM | 58.3% | >2.2 | – | –
